What all share (type): cell-based
Assay [1] concerns T47D. The experiment in a line: cells. The conditions noted are these: Homo sapiens, 120 h, read-out: T47D IC50. On the procedure: (§1) Test Example 2 In vitro proliferation inhibition assay of the camptothecin derivatives (Payload) of the present invention on tumor cells 1. Instruments and Reagents
(§2) 2. Experimental Procedure • a. Plating & culture: MDA-MB-453 (purchased from: Xiehe, catalog number: 1101HUM-PUMCO00016)/T47D (Kebai, CBP60397)/HT1376 cells (purchased from: Kebai, catalog number: CBP60310) were cultured into 96-well plates by a density of 1×10^3 /2×10^3 /1×10^3 cells per100 µL, and 200 µL of PBS was added to the outermost circle (to reduce the volatilization of the culture medium), and cultured at 37°C, 5% CO2 incubator for 24 h; • b. Drug Addition & Incubation: The 96-well flat-bottom plate was retrieved. The culture medium in the wells was aspirated, and 100 µL of the ADC drug/payload (diluted in culture medium) was added to each well. The plate was then incubated at 37°C, 5% CO2 incubator for 5 days. 3. Detection and data processing • a. The 96-well plate was retrieved. The culture medium was removed, and 100 µL of detection reagent (CCK8:medium= 1:9) was added to each well. The plate was then placed in a 37°C, 5% CO2 incubator for 4 hours; • b. The optical density (OD) at 450 nm was measured using a microplate reader (model: CEY0017), and the data was recorded with Excel. • c. Graphpad Prism 9.0 was used to analyze and organize the data.

The test system of assay [2] is HT1376. The experiment in a line: In vitro proliferation inhibition assay of camptothecin derivatives (Payload), Test Example 2. The conditions noted are these: Homo sapiens, HT-1376, 120 h, read-out: HT1376 IC50. On the procedure: as §1, §2
The subject of assay [3] is MDA-MB-453. Described as above. The conditions noted are these: Homo sapiens, MDA-MB-453, 120 h, read-out: MDA-MB-453 IC50. On the procedure:
as §1, §2

Setting [4] is: payload, incubated 5 days, CCK8, OD 450 nm.

pIC50: −log10 of the molar value. Like-named read-outs stand apart in the source and are kept apart here.

What is called pIC50 is the negative decadic logarithm of the IC50, by convention in mol/L. On to `CC[C@@]1(O)C(=O)OCc2c1cc1n(c2=S)Cc2c-1nc1cc(Cl)c(C)cc1c2CNC(=O)[C@H](C)O` [Example 43], for which the pIC50 in assay [1] was 10.05; in assay [2], 8.00; in assay [3], 8.79.

Consider `CC[C@@]1(O)C(=O)OCc2c1cc1n(c2=S)Cc2c-1nc1cc(F)c(C)cc1c2[C@@H](C)N` [Compound 16], for which the results for the negative-log IC50 (pIC50) in assay [1], in assay [2] and in assay [3] were 9.85, 8.41 and 9.32, respectively.

Take `CC[C@@]1(O)C(=O)OCc2c1cc1n(c2=S)Cc2c-1nc1cc(F)c(C)cc1c2CNC(=O)[C@@H](C)O` [Compound 23]: the figures for the pIC50 in assay [1], in assay [2] and in assay [3] were 9.93, 8.23 and 9.46, respectively.

As for `CC[C@@]1(O)C(=O)OCc2c1cc1n(c2=S)Cc2c-1nc1cc(F)c(OC)cc1c2CNC(=O)CO` [Compound 31], the pIC50 in assay [1] was 9.85; in assay [2] it was 7.71; in assay [3], 9.47.

On to `CC[C@@]1(OC(=O)Cn2cc(F)c(=O)[nH]c2=O)C(=O)OCc2c1cc1n(c2=S)Cc2c-1nc1cc(F)c(C)cc1c2CNC(=O)CO` [Compound 25], for which the pIC50 in assay [1] (setting [4]) was 8.59; in assay [2] (setting [4]), 8.08; in assay [3] (setting [4]), 6.99.

Take `CC[C@@]1(O)C(=O)OCc2c1cc1n(c2=S)Cc2c-1nc1cc(F)c(OC)cc1c2CNC(=O)[C@H](C)O` [Compound 32]: the pIC50 in assay [1] is 10.05; in assay [2], 7.81; in assay [3] it was 9.38.

On to `CC[C@@]1(O)C(=O)OCc2c1cc1n(c2=S)Cc2c-1nc1cc(F)c(OC)cc1c2CNC(=O)[C@@H](C)O` [Compound 34], for which the negative logarithm of the IC50 (pIC50) is 9.82 in assay [1], 7.99 in assay [2] and 9.19 in assay [3].

Consider `CC[C@@]1(O)C(=O)OCc2c1cc1n(c2=S)Cc2c-1nc1cc(F)c(C)cc1c2CNC(=O)C1CCC(O)C1` (some centres unmarked) [Compound 28], for which the pIC50 was 9.82 in assay [1], 7.37 in assay [2] and 8.21 in assay [3].

For the compound `CC[C@@]1(O)C(=O)OCc2c1cc1n(c2=S)Cc2c-1nc1cc3c(cc1c2CN)OCCO3` [Compound 13], the negative logarithm of the IC50 (pIC50) in assay [1] was 10.23; in assay [2], 7.96; in assay [3], 9.10.

For `CC[C@@]1(O)C(=O)OCc2c1cc1n(c2=S)Cc2c-1nc1cc(F)c(C)cc1c2CNC(=S)CO` [Compound 26], the pIC50 in assay [1] was greater than 11.52; in assay [2], 10.85; in assay [3], 9.00.

For the compound `CC[C@@]1(O)C(=O)OCc2c1cc1n(c2=S)Cc2c-1nc1cc3c(cc1c2CNC(=O)[C@H]1C[C@@H](O)C1)OCCO3` [Compound 38], the pIC50 in assay [1] was 9.63; in assay [2], 7.42; in assay [3], 9.92.

`CC[C@@]1(O)C(=O)OCc2c1cc1n(c2=S)Cc2c-1nc1cc3c(cc1c2CNC(=O)[C@H](C)O)OCCO3` [Compound 40]: the pIC50 in assay [1] was 10.28; in assay [2] it was 7.74; in assay [3], 10.68.

As for `CC[C@@]1(O)C(=O)OCc2c1cc1n(c2=S)Cc2c-1nc1cc3c(cc1c2CNC(=O)OCCO)OCCO3` [Compound 37], the pIC50 is 10.27 in assay [1], 7.87 in assay [2] and 10.89 in assay [3].

As for `CC[C@@]1(O)C(=O)OCc2c1cc1n(c2=S)Cc2c-1nc1cc(F)c(C)cc1c2CNC(=O)[C@@H](O)C1CC1` [Compound 19], the pIC50 was 9.57 in assay [1], 8.03 in assay [2] and 9.00 in assay [3].

On to `CC[C@@]1(O)C(=O)OCc2c1cc1n(c2=S)Cc2c-1nc1cc(F)c(OC)cc1c2CNC(=O)[C@H]1C[C@@H](O)C1` [Compound 30], for which the figures for the pIC50 in assay [1], in assay [2] and in assay [3] were 9.41, 7.18 and 9.00, respectively.

As for `CC[C@@]1(O)C(=O)OCc2c1cc1n(c2=S)Cc2c-1nc1cc(F)c(C)cc1c2CNCCO` [Compound 27], the pIC50 was 9.82 in assay [1], 8.60 in assay [2] and 9.77 in assay [3].

As for `CC[C@@]1(O)C(=O)OCc2c1cc1n(c2=S)Cc2c-1nc1cc(F)c(C)cc1c2CNC(=O)[C@H](C)O` [Compound 22], the pIC50 in assay [1] is 9.94; in assay [2], 8.27; in assay [3], 9.44.

As to `CC[C@@]1(O)C(=O)OCc2c1cc1n(c2=S)Cc2c-1nc1cc(F)c(F)cc1c2CNC(=O)[C@H](C)O` [Example 45], the pIC50 in assay [1] was 8.55; in assay [2] it was 8.42; in assay [3] it was 8.30.

As for `CC[C@@]1(OC(=O)Cn2cc(F)c(=O)[nH]c2=O)C(=O)OCc2c1cc1n(c2=S)Cc2c-1nc1cc(F)c(C)cc1c2CN` [Compound 24], the figures for the pIC50 in assay [1] (setting [4]), in assay [2] (setting [4]) and in assay [3] (setting [4]) were 8.44, 7.59 and 7.11, respectively.

Regarding `CC[C@@]1(O)C(=O)OCc2c1cc1n(c2=S)Cc2c-1nc1cc(F)c(F)cc1c2CN` [Compound 15], the pIC50 in assay [1] was 9.80; in assay [2] it was 8.01; in assay [3], 8.96.

For the compound `CC[C@@]1(O)C(=O)OCc2c1cc1n(c2=S)Cc2c-1nc1cc(F)c(OC)cc1c2CNC(=O)OCCO` [Compound 33], the pIC50 in assay [1] is 9.41; in assay [2] it was 7.34; in assay [3], 9.22.

As for `CC[C@@]1(O)C(=O)OCc2c1cc1n(c2=S)Cc2c-1nc1cc(F)c(OC)cc1c2CN` [Compound 12], the values for the pIC50 in assay [1], in assay [2] and in assay [3] were 10.03, 8.71 and 9.51, respectively.

As to `CC[C@@]1(O)C(=O)OCc2c1cc1n(c2=S)Cc2c-1nc1cc(Cl)c(C)cc1c2CNC(=O)[C@H]1C[C@@H](O)C1` [Example 42], the pIC50 in assay [1] was 9.07; in assay [2], 7.40; in assay [3], 8.38.

`CC[C@@]1(O)C(=O)OCc2c1cc1n(c2=S)Cc2c-1nc1cc(F)c(C)cc1c2CNC(=O)[C@H]1C[C@@H](O)C1` [Compound 21]: the figures for the pIC50 in assay [1], in assay [2] and in assay [3] were 9.97, 7.94 and 9.53, respectively.

As for `CC[C@@]1(O)C(=O)OCc2c1cc1n(c2=S)Cc2c-1nc1cc(F)c(OC)cc1c2CNC(=S)CO` [Compound 35], the results for the pIC50 in assay [2] and in assay [3] were 8.31 and roughly 8.91, respectively.

`CC[C@@]1(O)C(=O)OCc2c1cc1n(c2=S)Cc2c-1nc1cc3c(cc1c2CNC(=O)CO)OCCO3` [Compound 36]: the negative logarithm of the IC50 (pIC50) in assay [1] is 9.92; in assay [2] it was 7.99; in assay [3], 10.54.

For `[2H]C([2H])(O)C(=O)NCc1c2c(nc3cc(F)c(C)cc13)-c1cc3c(c(=S)n1C2)COC(=O)[C@]3(O)CC` [Compound 29], the pIC50 in assay [1] was 10.85; in assay [2], 8.22; in assay [3] it was 9.74.

For `CC[C@@]1(O)C(=O)OCc2c1cc1n(c2=S)Cc2c-1nc1cc(F)c(F)cc1c2CNC(=O)[C@H]1C[C@@H](O)C1` [Example 44], the values for the pIC50 in assay [1], in assay [2] and in assay [3] were 9.71, 8.30 and 9.17, respectively.

Turning to `CC[C@@]1(O)C(=O)OCc2c1cc1n(c2=S)Cc2c-1nc1cc3c(cc1c2CNC(=S)CO)OCCO3` [Compound 39], the pIC50 in assay [1] was 10.33; in assay [2] it was 8.06; in assay [3], 9.32.

In the case of `CC[C@@]1(O)C(=O)OCc2c1cc1n(c2=S)Cc2c-1nc1cc(Cl)c(C)cc1c2CN` [Compound 14], the pIC50 was 9.60 in assay [1], 7.86 in assay [2] and 8.28 in assay [3].

With `CC[C@@]1(O)C(=O)OCc2c1cc1n(c2=S)Cc2c-1nc1cc(F)c(C)cc1c2CNC(=O)[C@H](O)C1CC1` [Compound 20], the results for the pIC50 in assay [1], in assay [2] and in assay [3] were 9.61, 9.04 and 8.09, respectively.

Consider `CC[C@@]1(O)C(=O)OCc2c1cc1n(c2=S)Cc2c-1nc1cc3c(cc1c2CNC(=O)[C@@H](C)O)OCCO3` [Compound 41], for which the pIC50 in assay [1] is 9.64; in assay [2], 7.62; in assay [3], 9.03.

Source of the values: patent EP4711371A1 (priority 2023, dated 2024).
